{
  "source": "patent US10344060B2",
  "about": "(priority 2013, dated 2019)",
  "assay_in_all_cases": "cell-based",
  "key": {"rNav1.7": {"biological_target": "rNav1.7 (Rattus norvegicus, UniProt O08562)", "details": "for IC50: PatchXpress, tonic block, rat Nav1.7, read-out: PX rNav1.7 Tonic IC50; for rNav1.7/hNav1.7: ratio of PX tonic IC50, rat Nav1.7 over human Nav1.7"}, "mNav1.7": {"biological_target": "mNav1.7 (Mus musculus, UniProt Q62205)", "sequence (Q62205 whole entry)": "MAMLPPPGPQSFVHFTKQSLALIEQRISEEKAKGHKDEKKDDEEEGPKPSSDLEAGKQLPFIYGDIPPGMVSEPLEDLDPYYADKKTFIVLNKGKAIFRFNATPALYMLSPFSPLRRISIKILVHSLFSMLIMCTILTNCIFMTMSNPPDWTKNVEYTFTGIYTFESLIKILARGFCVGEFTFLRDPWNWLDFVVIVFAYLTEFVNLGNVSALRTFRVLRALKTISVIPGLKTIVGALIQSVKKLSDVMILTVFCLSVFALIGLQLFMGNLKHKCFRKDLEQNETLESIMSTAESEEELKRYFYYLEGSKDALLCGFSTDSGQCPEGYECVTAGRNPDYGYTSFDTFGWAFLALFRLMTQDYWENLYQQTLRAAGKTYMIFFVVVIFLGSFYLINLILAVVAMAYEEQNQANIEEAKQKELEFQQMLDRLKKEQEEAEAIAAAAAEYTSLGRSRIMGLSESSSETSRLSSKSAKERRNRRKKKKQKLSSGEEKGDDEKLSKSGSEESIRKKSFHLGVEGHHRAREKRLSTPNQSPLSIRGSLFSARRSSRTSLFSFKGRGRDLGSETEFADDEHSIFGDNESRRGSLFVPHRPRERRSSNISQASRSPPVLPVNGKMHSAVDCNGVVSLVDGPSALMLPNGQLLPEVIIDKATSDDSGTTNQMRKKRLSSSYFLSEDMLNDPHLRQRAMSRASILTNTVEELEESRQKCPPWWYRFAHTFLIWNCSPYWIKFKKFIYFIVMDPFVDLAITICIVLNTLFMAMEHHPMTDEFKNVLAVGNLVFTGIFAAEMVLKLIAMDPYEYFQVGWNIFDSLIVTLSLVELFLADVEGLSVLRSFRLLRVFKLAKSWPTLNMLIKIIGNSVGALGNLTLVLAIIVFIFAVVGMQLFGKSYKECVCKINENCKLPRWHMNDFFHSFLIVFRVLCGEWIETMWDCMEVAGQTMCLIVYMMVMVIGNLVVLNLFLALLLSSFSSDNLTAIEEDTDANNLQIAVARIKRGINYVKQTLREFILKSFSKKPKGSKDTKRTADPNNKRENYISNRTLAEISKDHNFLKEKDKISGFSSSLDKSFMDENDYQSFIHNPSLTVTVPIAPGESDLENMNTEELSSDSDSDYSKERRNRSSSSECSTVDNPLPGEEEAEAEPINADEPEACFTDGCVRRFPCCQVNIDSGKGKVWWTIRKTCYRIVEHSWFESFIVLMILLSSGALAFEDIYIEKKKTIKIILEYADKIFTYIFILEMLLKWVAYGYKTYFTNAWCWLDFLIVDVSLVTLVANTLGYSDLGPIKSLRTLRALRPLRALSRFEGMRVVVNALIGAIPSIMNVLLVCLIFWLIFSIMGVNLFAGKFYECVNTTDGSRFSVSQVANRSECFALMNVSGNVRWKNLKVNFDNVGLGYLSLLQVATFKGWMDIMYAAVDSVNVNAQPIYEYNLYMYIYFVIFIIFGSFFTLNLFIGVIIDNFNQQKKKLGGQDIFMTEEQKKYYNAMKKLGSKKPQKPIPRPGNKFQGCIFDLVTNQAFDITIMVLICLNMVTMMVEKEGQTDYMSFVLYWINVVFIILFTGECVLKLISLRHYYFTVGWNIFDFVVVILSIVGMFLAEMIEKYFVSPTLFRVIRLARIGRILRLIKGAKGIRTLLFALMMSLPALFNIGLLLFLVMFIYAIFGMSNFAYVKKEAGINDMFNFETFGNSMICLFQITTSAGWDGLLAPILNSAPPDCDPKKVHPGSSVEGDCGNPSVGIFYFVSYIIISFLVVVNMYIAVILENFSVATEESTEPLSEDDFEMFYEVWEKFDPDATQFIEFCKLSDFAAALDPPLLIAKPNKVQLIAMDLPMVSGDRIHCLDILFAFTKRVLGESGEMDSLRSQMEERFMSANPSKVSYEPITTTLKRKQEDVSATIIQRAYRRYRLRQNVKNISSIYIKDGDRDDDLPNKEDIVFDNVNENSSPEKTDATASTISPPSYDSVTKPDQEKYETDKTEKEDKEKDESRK", "details": "for IC50: PatchXpress, tonic block, mouse Nav1.7, read-out: PX mNav1.7 Tonic IC50; for mNav1.7/hNav1.7: ratio of PX tonic IC50, mouse Nav1.7 over human Nav1.7"}, "mouse Nav1.4": {"biological_target": "mouse Nav1.4 (Mus musculus, UniProt Q9ER60)", "sequence (Q9ER60 whole entry)": "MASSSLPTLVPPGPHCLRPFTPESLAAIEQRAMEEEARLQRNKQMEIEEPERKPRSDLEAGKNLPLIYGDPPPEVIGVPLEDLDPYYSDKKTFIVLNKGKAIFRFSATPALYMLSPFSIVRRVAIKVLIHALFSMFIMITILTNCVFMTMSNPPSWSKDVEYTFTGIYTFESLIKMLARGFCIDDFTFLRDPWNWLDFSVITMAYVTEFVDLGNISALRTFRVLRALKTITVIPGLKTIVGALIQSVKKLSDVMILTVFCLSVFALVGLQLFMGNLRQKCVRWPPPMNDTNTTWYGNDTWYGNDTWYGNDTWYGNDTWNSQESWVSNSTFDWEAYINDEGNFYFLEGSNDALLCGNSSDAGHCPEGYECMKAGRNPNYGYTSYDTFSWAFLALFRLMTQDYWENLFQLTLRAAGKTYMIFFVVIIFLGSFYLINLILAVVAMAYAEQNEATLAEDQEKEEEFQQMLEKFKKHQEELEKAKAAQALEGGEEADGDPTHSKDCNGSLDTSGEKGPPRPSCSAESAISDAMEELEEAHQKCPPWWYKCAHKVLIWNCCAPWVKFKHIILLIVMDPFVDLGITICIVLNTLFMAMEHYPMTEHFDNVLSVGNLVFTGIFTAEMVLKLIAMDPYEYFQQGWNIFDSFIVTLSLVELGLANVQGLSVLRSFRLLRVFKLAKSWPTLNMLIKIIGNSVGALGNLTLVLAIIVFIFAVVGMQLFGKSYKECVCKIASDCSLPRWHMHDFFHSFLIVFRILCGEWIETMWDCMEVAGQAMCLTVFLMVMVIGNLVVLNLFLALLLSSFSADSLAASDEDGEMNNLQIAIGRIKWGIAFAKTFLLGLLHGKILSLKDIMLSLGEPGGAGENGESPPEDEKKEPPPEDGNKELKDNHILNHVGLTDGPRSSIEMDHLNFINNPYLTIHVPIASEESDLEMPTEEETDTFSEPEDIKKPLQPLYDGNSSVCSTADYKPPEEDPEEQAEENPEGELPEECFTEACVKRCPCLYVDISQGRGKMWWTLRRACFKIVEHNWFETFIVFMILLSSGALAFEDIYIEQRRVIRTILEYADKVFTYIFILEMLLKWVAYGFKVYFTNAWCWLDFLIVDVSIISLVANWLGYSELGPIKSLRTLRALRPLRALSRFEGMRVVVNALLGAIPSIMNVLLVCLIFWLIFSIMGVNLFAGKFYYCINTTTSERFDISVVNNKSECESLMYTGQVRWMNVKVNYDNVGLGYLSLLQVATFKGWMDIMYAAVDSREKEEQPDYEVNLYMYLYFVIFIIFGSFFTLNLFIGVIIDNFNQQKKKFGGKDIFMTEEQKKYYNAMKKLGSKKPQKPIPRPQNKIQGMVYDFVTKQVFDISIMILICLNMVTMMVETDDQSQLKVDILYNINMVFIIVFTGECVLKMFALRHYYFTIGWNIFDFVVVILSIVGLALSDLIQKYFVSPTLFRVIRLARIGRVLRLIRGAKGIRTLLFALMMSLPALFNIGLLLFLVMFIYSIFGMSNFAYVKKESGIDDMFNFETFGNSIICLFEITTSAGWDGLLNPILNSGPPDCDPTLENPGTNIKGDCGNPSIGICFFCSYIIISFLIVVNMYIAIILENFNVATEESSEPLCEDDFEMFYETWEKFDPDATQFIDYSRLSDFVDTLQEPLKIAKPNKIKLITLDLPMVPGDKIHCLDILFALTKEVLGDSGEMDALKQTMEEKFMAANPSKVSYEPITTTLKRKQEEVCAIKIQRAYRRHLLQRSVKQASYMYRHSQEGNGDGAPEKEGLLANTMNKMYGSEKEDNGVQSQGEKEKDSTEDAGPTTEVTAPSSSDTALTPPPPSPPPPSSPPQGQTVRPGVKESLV", "details": "for IC50: PatchXpress, tonic block, mouse Nav1.4, read-out: PX mNav1.4 Tonic IC50; for mNav1.4/mNav1.7: ratio of PX tonic IC50, mouse Nav1.4 over mouse Nav1.7"}, "hNav1.7 [1]": {"biological_target": "T1, hNav1.7 (Homo sapiens, UniProt Q15858)", "assay_type": "cell-based"}, "hNav1.7 [2]": {"biological_target": "T1, hNav1.7", "assay_type": "cell-based", "details": "read-out: Nav1.7 whole cell patch clamp [WCPC] IC50"}},
  "note": "Read-outs that look alike come from different tables or passages of the source.",
  "data": [
    {"compound": "C#CC[C@H](N)C(=O)N[C@@H](Cc1ccc(O)cc1)C(=O)N[C@H]1CSSC[C@@H]2NC(=O)[C@@H]3CSSC[C@@H](C(=O)N[C@@H](CCCNC(=N)N)C(=O)N[C@@H](CCCCN)C(=O)N[C@H](C(=O)N[C@H](C(N)=O)[C@@H](C)CC)[C@@H](C)CC)NC(=O)[C@H](Cc4c[nH]c5ccccc45)NC(=O)[C@H](CC(C)C)NC(=O)[C@H](CCCCN)NC(=O)[C@H](CSSC[C@H](NC(=O)[C@H]([C@@H](C)O)NC(=O)[C@H](Cc4c[nH]c5ccccc45)NC(=O)[C@H](CCCC)NC(=O)[C@H](Cc4c[nH]c5ccccc45)NC(=O)[C@H](CCCCN)NC(=O)[C@H](CCC(N)=O)NC1=O)C(=O)N[C@@H](CC(=O)O)C(=O)N[C@@H](CO)C(=O)N[C@@H](CCC(=O)O)C(=O)N[C@@H](CCCNC(=N)N)C(=O)N[C@@H](C)C(=O)N3)NC(=O)[C@H](CCCNC(=N)N)NC(=O)[C@H](CC(C)C)NC(=O)CNC(=O)[C@H](CCC(=O)O)NC2=O", "note": "[Pra-[Nle6; Glu12]JzTx-V(1-29)]", "values": [
      {"measurement": "IC50", "setting": "rNav1.7", "result": 0.58, "unit": "nM"},
      {"measurement": "rNav1.7/hNav1.7", "setting": "rNav1.7", "result": 0.49},
      {"measurement": "IC50", "setting": "mNav1.7", "result": 0.61, "unit": "nM"},
      {"measurement": "mNav1.7/hNav1.7", "setting": "mNav1.7", "result": 0.51},
      {"measurement": "IC50", "setting": "mouse Nav1.4", "result": 6.36, "unit": "nM"},
      {"measurement": "mNav1.4/mNav1.7", "setting": "mouse Nav1.4", "result": 10}
    ]},
    {"compound": "C#CC[C@H](N)C(=O)N[C@@H](Cc1ccc(O)cc1)C(=O)N[C@H]1CSSC[C@@H]2NC(=O)[C@@H]3CSSC[C@@H](C(=O)N[C@@H](CCCNC(=N)N)C(=O)N[C@@H](CCCCN)C(=O)N[C@H](C(=O)N[C@H](C(N)=O)[C@@H](C)CC)[C@@H](C)CC)NC(=O)[C@H](Cc4c[nH]c5ccccc45)NC(=O)[C@H](CC(C)C)NC(=O)[C@H](CCCCN)NC(=O)[C@H](CSSC[C@H](NC(=O)[C@H]([C@@H](C)O)NC(=O)[C@H](Cc4c[nH]c5ccccc45)NC(=O)[C@H](CCCC)NC(=O)[C@H](Cc4c[nH]c5ccccc45)NC(=O)[C@H](CCCCN)NC(=O)[C@H](CCC(N)=O)NC1=O)C(=O)N[C@@H](CC(=O)O)C(=O)N[C@@H](CO)C(=O)N[C@@H](CCCCN)C(=O)N[C@@H](CCCNC(=N)N)C(=O)N[C@@H](C)C(=O)N3)NC(=O)[C@H](CCCNC(=N)N)NC(=O)[C@H](CC(C)C)NC(=O)CNC(=O)[C@H](CCC(=O)O)NC2=O", "note": "[SEQ ID NO: 425, Pra-[Nle6]JzTx-V(1-29)]", "values": [
      {"measurement": "IC50", "setting": "rNav1.7", "result": 0.522, "unit": "nM"},
      {"measurement": "rNav1.7/hNav1.7", "setting": "rNav1.7", "result": 0.44},
      {"measurement": "IC50", "setting": "mNav1.7", "result": 0.511, "unit": "nM"},
      {"measurement": "mNav1.7/hNav1.7", "setting": "mNav1.7", "result": 0.43},
      {"measurement": "IC50", "setting": "mouse Nav1.4", "result": 0.18, "unit": "nM"},
      {"measurement": "mNav1.4/mNav1.7", "setting": "mouse Nav1.4", "result": 0.35}
    ]},
    {"compound": "[Phe6,Atz(2 kDa EtO-PEG*-[Phe6,Atz13*]GpTx-1(1-34)1)13]GpTx-1(1-34) [Homodimeric Conjugate No. 3]", "values": [
      {"measurement": "Wash out", "setting": "hNav1.7 [1]", "result": "No"},
      {"measurement": "IC50", "setting": "hNav1.7 [1]; read-out: Nav1.7 PX IC50", "result": 13, "unit": "nM"},
      {"measurement": "IC50", "setting": "hNav1.7 [2]", "result": 0.58, "unit": "nM"}
    ]}
  ]
}
